Series [1] in a line: stability test in liver microsomes (rat). Type of series: in vitro ADME. The note with it: 60 min. As for the experimental part:
(§1) The stability of the compound of the present invention in liver microsomes of rat, monkey and human was determined. Tested compounds of the present invention were the compounds in Examples 6, 8 and 29, and a control drug was Zavegepant.
(§2) 3.2 An appropriate amount of liver microsome solution was transferred into a 1 mL 96-deep-well plate, added with a tested drug liquid (or a probe substrate solution), and pre-incubated in a thermal mixer at 37°C for 5 minutes. Two parts of mixed solutions were taken out from the system and added with 1×PBS to replace NADPH, and the mixed solutions were taken out at 0 and 60 minutes respectively, and added with methanol (containing an internal standard) to terminate the reaction. In the remaining mixed system, each well was added with NADPH to start the reaction. In the tested substance group, mixed solutions were taken out from the system at 0, 5, 15, 30, 45 and 60 minutes, and in the control group, mixed solutions were taken out from the system at 0, 30 and 60 minutes, and the mixed solutions were added methanol (containing an internal standard) to terminate the reaction. All samples of the terminated reaction were mixed evenly and centrifuged in a centrifuge at 3800 rpm for 15 minutes, and the supernatant was taken for LC-MS/MS analysis.
(§3) A peak area was determined by an extracted ion chromatogram. A slope value k was determined by linear regression of a remaining percentage of a parent drug relative to a natural logarithm of an incubation time curve. According to the slope, in-vitro half-life periods (t1/2) were respectively calculated, and in-vitro intrinsic clearance rates (CLint, represented by µL/min/mg protein) were calculated. Calculation formulas were as follows: t1/2 = ln2/k = 0.693/k; and CLint = 0.693/t1/2 /liver microsome protein concentration [formula]

Series [2] is described as follows: stability test in liver microsomes (monkey). Type of series: in vitro ADME. The conditions noted are these: 60 min. As for the experimental part: as §1, §2, §3
The nature of series [3]: stability test in liver microsomes (human). The class given is in vitro ADME. The conditions noted are these: 60 min. As for the experimental part: as §1, §2, §3
The nature of series [4]: plasma protein binding rate test, equilibrium dialysis (rat). The class given is in vitro ADME, SD rat. The note with it: 1 µM, 6 hours, 37°C. How it is done:
(§4) Protein binding rates of the compound of the present invention in plasma of rat, monkey and human were determined by an equilibrium dialysis method. Tested compounds of the present invention were the compounds in Examples 6, 8 and 29, and a control drug was Zavegepant.
(§5) 3.1 A dry dialysis membrane was rinsed with ultrapure water for 2-3 times, and then soaked in a phosphate buffer for 1 hour for later use. Polytetrafluoroethylene module was soaked in 20% ethanol for 30 minutes, and then surface moisture was dried with dust-free paper for later use. The pretreated dialysis membrane was assembled into a dialysis plate according to the product specification, and one side (receptor compartment) of an osmotic membrane in each dialysis well was added with 100 µL of receptor fluid (100 mM phosphate buffer solution plus 0.002% Tween 80).
(§6) 3.2 The plasma was put into a centrifuge tube, a working solution of a tested substance was added into the plasma, wherein a final concentration was 1 µM, and the mixture was turned upside down and mixed evenly (this step was carried out in ice bath). 20 µL of drug-containing plasma each was taken, and was respectively transferred to a 96-well sample plate according to two parts in parallel, and stored in a refrigerator at -20°C as a T0 sample.
(§7) 3.3 Another 100 µL of the above drug-containing plasma was transferred to the other side (sample compartment) of the membrane in the dialysis device according to two parts in parallel, and incubated under vibration at a constant temperature of 37°C for 6 hours. After 6 hours of incubation, 20 µL of the plasma was respectively taken out from the receptor compartment and the sample compartment after equilibration to obtain samples B and A. The samples B and A were respectively added with corresponding volumes of corresponding blank plasma or phosphate buffer solution (containing 0.002% Tween 80), so that a volume ratio of the plasma to the buffer solution in each sample well was 1: 1.
(§8) 3.4 All sample wells were added with 250 µL of methanol solution containing an internal standard, mixed evenly and then centrifuged in a centrifuge at 3800 rpm for 10 minutes. […]
(§9) A plasma protein binding rate and a recovery rate of the compound in plasma were calculated by the following formulas: dissociation percentage (%) = CB /CA; [formula] plasma protein binding rate (fb%) = 1−dissociation percentage (%); [formula] recovery rate (%) = (CB+CA)/CT0 [formula] wherein CB was a concentration of the compound in the receptor fluid after equilibrium dialysis; CA was a concentration of the compound in the drug-containing plasma after equilibrium dialysis; and CT0 was an initial concentration of the compound in plasma.
In general terms: In equilibrium dialysis only unbound substance equilibrates across the membrane.

Series [5] can be described thus: plasma protein binding rate test, equilibrium dialysis (monkey). The class given is in vitro ADME, cynomolgus monkey. The conditions noted are these: 1 µM, 6 hours, 37°C. As for the experimental part:
as §4, §5, §6, §7, §8, §9

Series [6] is described as follows: plasma protein binding rate test, equilibrium dialysis (human). The note with it: 1 µM, 6 hours, 37°C. Type of series: in vitro ADME. How it is done: as §4, §5, §6, §7, §8, §9
The target of a further series is T1, CGRP receptor complex (Homo sapiens, UniProt O60894+Q16602).
T1 construct: host or cells: SK-N-MC
T1 sequence (Q16602 23-461): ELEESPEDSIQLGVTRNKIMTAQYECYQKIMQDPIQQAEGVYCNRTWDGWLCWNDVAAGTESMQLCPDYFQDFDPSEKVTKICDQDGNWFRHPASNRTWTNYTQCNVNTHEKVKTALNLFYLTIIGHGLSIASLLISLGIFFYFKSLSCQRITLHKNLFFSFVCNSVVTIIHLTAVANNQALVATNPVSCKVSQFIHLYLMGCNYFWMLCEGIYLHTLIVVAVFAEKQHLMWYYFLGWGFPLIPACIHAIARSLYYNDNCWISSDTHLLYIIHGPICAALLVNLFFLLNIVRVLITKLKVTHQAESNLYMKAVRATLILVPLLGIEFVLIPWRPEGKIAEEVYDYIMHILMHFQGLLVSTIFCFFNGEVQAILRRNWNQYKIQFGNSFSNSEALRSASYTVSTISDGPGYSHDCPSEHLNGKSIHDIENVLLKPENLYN
T1 sequence (O60894 27-148): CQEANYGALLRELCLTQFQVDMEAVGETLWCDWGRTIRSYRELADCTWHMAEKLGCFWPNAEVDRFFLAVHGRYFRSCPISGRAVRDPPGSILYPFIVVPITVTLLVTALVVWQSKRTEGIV
Briefly: determination of cell functional antagonism - cAMP determination. The class given is cell-based. How it is done: 1.Experimental principle A CGRP receptor complex was coupled with Gs in G protein, the combination of CGRP and CGRP receptor complex led to Gs activation, and cAMP (3',5'-cyclic adenosine monophosphate) was produced. 2.Experimental purpose The ability of the compound of the present invention to inhibit CGRP-stimulated cAMP formation in SK-N-MC cells was determined. 3.Experimental materials 3.1Experimental cell line: SK-N-MC (neuroepithelioma cells) from National Science and Technology Infrastructure - Biomedical Materials and Cell Resources. 3.2Reagents and consumables
4.Experimental steps • 4.1Cell preparation: The SK-N-MC cells were resuscitated and cultured in advance, and a cell confluence degree should be 70%-80% before use. • 4.2A sample dilution, a tested compound and α-CGRP (human) were prepared. • 4.3Cell seeding and drug effect: The SK-N-MC cells were digested, centrifuged, then resuspended with the sample dilution, and inoculated into a 384-well plate. Each well was added with the α-CGRP (human) and the tested compound respectively, and blown and mixed evenly. The well plate was adhered with a sealing film, and placed on an enzyme-labeled incubator to incubate at 25°C. • 4.4cAMP determination: carried out according to LANCE Ultra cAMP Kit specification Eu-cAMP tracer and ULight-anti-cAMP working solutions were prepared in the dark, respectively added into the well plate, and blown and mixed evenly.

Setting [7] is: inhibition of CGRP-stimulated cAMP formation in SK-N-MC cells, read-out: IC50.

What is called pIC50 is the negative decadic logarithm of the IC50, by convention in mol/L.

pIC50: −log10 of the molar value. Like-named read-outs stand apart in the source and are kept apart here.

With `[2H]C([2H])([2H])N1CCC(N2CCN(C(=O)[C@@H](Cc3cc(C)c4[nH]ncc4c3)NC(=O)N3CCC(c4cc5c([nH]c4=O)SCC5)CC3)CC2)CC1` [Example 29, (R)-N-(3-(7-methyl-1H-indazole-5-yl)-1-(4-(1-(methyl-d3)piperidine-4-yl)piperazine-1-yl)-1-oxopropan-2-yl)-4-(6-oxo-2,3,6,7-tetrahydrothieno[2,3-b]pyridine-5-yl)piperidine-1-formamide], the “% remaining (60 min)” value in series [1] is 105%; in series [2], 98.9%; in series [3], 115%. In addition, the “fb (%)” value in series [4] was 64.3%; in series [5], 56.1%; in series [6], 50.2%.
For the compound `Cc1cc(CC(OC(=O)N2CCC(c3cc4c([nH]c3=O)SCC4)CC2)C(=O)N2CCN(C3CCN(C)CC3)CC2)cc2cn[nH]c12` (stereo not shown) [Example 42, 3-(7-methyl-1H-indazole-5-yl)-1-(4-(1-methylpiperidine-4-yl)piperazine-1-yl)-1-oxopropan-2-yl-4-(6-oxo-2,3,6,7-tetrahydrothieno[2,3-b]pyridine-5-yl)piperidine-1-formate], the pIC50 on CGRP receptor complex (setting [7]) is 9.57.
The same measure, in the same setting: then `Cc1cc(C[C@@H](NC(=O)N2CCC(c3cc4c([nH]c3=O)SCC3(CC3)C4)CC2)C(=O)N2CCN(C3CCN(C)CC3)CC2)cc2cn[nH]c12` [Example 46, (R)-N-(3-(7-methyl-1H-indazole-5-yl)-1-(4-(1-methylpiperidine-4-yl)piperazine-1-yl)-1-oxopropan-2-yl)-4-(7'-oxo-7',8'-dihydro-2'H,4'H-spiro[cyclopropane-1,3'-thiopyrano[2,3-b]pyridine]-6'-yl)piperidine-1-formamide], with 9.82.
`Cc1cc(C[C@@H](NC(=O)N2CCC(c3cc4c([nH]c3=O)SCC3CC43)CC2)C(=O)N2CCN(C3CCN(C)CC3)CC2)cc2cn[nH]c12` (stereo partly drawn) [Example 47, N-((R)-3-(7-methyl-1H-indazole-5-yl)-1-(4-(1-methylpiperidine-4-yl)piperazine-1-yl)-1-oxopropan-2-yl)-4-(5-oxo-1,1a,2,4,5,7b-hexahydrocyclopropo[4,5]thiopyrano[2,3-b]pyridine-6-yl)piperidine-1-formamide]: the negative-log IC50 (pIC50) at CGRP receptor complex is 9.62.
In the case of `Cc1cc(C[C@@H](NC(=O)N2CCC(c3cc4c([nH]c3=O)SCCC4)CC2)C(=O)N2CCN(C3CCNCC3)CC2)cc2cn[nH]c12` [Example 49, (R)-N-(3-(7-methyl-1H-indazole-5-yl)-1-oxo-1-(4-(piperidine-4-yl)piperazine-1-yl)propan-2-yl)-4-(7-oxo-3,4,7,8-tetrahydro-2H-thiopyrano[2,3-b]pyridine-6-yl)piperidine-1-formamide], the pIC50 on CGRP receptor complex (setting [7]) is 9.85.
Same read-out and setting: then `Cc1cc(C[C@@H](NC(=O)N2CCC(c3cc4c([nH]c3=O)SCC4)CC2)C(=O)N2CCN(C3CCNCC3)CC2)cc2cn[nH]c12` [Example 50, (R)-N-(3-(7-methyl-1H-indazole-5-yl)-1-oxo-1-(4-(piperidine-4-yl)piperazine-1-yl)propan-2-yl)-4-(6-oxo-2,3,6,7-tetrahydrothieno[2,3-b]pyridine-5-yl)piperidine-1-formamide], with 10.15.
With `Cc1cc(C[C@@H](NC(=O)N2CCC(c3cc4c([nH]c3=O)CCC4)CC2)C(=O)N2CCN(C3CCN(C)CC3)CC2)cc2cn[nH]c12` [Example 51, (R)-N-(3-(7-methyl-1H-indazole-5-yl)-1-(4-(1-methylpiperidine-4-yl)piperazine-1-yl)-1-oxopropan-2-yl)-4-(2-oxo-2,5,6,7-tetrahydro-1H-cyclopentadieno[b]pyridine-3-yl)piperidine-1-f ormamide], the pIC50 at CGRP receptor complex was 8.71.
As for `Cc1cc(C[C@@H](NC(=O)N2CCC(c3cc4c([nH]c3=O)CCCC4)CC2)C(=O)N2CCN(C3CCN(C)CC3)CC2)cc2cn[nH]c12` [Example 52, (R)-N-(3-(7-methyl-1H-indazole-5-yl)-1-(4-(1-methylpiperidine-4-yl)piperazine-1-yl)-1-oxopropan-2-yl)-4-(2-oxo-1,2,5,6,7,8-hexahydroquinoline-3-yl)piperidine-1-formamide], the negative logarithm of the IC50 (pIC50) at CGRP receptor complex (setting [7]) was 8.98.

The values above are taken from patent EP4703362A1 (Chengdu Sibeibo Pharmaceutical Technology Co., Ltd, priority 2023, dated 2024).
